Measurements as given in US10364323B2, “Method for producing polyether carbonate polyols” (priority 2015, dated 2019).

Assay: physchem
From the text: The pKa in the context of the process according to the invention is to be understood as meaning the negative decadic logarithm of the first dissociation constant of the carboxylic acid at a temperature of 25 degrees Celsius. […] The pKa of the carboxylic acid may be measured by determining the pH at the half-equivalence point. To this end, an aqueous solution of the carboxylic acid is titrated against sodium hydroxide solution of a defined concentration and in each case the pH of the solution is measured using a calibrated combination pH electrode. […] According to the Henderson-Hasselbalch equation at the half-equivalence point the pKa corresponds to the measured pH because the acid and its corresponding base are present in equal concentration. Carboxylic acids having an insufficient solubility in water are titrated in methanolic solution (pKLy=16.7) or ethanolic solution (pKLy=19.1), wherein pKLy is defined as follows for non-aqueous media.
[formula] […] Chem., 1985, Vol. 57, No. 6, pp. 865-876.

| SMILES | pKa |
| --- | --- |
| O=C(O)C(=O)O [Oxalic acid] | 1.46 |
| O=C(O)CCCCCC(=O)O [Pimelic acid] | 4.71 |
